# Molecular target: T1, TRPC5 channel (Homo sapiens, UniProt Q9UL62)
# T1 construct: expressed in transfected cells; host or cells: HEK293/TREx (Invitrogen), tetracycline-induced
# T1 sequence (Q9UL62 1-973): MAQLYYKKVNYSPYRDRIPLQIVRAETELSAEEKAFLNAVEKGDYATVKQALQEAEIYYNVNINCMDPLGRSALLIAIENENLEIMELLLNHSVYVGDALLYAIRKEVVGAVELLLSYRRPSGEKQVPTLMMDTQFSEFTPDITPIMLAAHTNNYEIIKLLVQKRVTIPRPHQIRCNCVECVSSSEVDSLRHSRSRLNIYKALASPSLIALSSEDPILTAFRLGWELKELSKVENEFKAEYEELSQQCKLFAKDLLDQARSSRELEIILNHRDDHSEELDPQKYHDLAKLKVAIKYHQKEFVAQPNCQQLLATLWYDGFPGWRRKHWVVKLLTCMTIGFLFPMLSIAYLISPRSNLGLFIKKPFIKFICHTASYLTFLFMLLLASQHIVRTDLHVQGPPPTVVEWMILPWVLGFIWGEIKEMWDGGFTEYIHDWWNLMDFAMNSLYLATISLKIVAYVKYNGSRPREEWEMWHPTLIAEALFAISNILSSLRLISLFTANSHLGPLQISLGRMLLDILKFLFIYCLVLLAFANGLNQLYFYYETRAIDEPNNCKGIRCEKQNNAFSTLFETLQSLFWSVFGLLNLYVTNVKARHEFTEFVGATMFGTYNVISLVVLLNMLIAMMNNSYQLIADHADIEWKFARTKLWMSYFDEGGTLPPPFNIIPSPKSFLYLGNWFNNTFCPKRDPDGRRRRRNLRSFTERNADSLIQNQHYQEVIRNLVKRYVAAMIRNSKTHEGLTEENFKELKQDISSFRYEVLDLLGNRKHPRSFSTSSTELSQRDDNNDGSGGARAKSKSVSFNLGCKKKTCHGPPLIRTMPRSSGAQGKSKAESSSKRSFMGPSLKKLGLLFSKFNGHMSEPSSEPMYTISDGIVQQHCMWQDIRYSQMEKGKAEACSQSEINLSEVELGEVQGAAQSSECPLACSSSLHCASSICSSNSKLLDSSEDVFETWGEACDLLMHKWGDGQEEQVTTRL
# Assay: High throughput screening assay: Fluo4 cell-based fluorescence Ca2+ influx assay
# Settings: HEK293/TREx cells inducibly expressing TRPC5, inhibition of [Ca2+]i rise after high-Ca2+ Ringer (14 mM Ca2+), triplicate, 0.027-20 μM
# Text: The assay depended on detection of the rise in intracellular Ca2+ concentration ([Ca2+]i) following channel activation in cells inducibly expressing the TRPC5 channel. Ca2+ rise was quantified with the use of fluorescent Ca2+ indicators that were loaded into cells and thereafter indicated the [Ca2+]i Ca2+ influx followed activation of the TRPC5 channel. Compounds inhibiting the [Ca2+]i rise were considered hits for further investigation.
# The commercially available HEK293/TREx line (Invitrogen) was stably transfected with a TRPC5 construct and screened by conventional calcium imaging to find clones with TRPC5 expression following stimulation with 1 μg/ml tetracycline. These cells were maintained in the growth medium recommended by the manufacturer supplemented with 100 μg/ml hygromycin to promote retention of the TRPC5 construct. After growing to near confluency, cells were plated at a density of ˜35,000 cells/well in 384 well CellBind plates (Corning) in the presence of 1 μg/ml tetracycline, and allowed to grow for 20-30 hrs. A nearly confluent monolayer resulted. Cells were then loaded with Ca2+ dye: Fura-2/AM or Fluo4/AM was added to the wells to a final concentration of 4 μM or 0.5 μM, respectively, and incubated for 80 min or 60 min, respectively, at room temperature. Supernatant was then removed from the cells by inverting plates with a sharp flick, and 25 μl Hank's Balanced Salt Solution (HBSS; 0.185 g/l D-glucose, 0.9767 g/l MgSO4 (anhydrous), 0.4 g/l KCl, 0.06 g/l KH2PO4 (anhydrous), 0.35 g/l NaHCO3, 8.0 g/l NaCl, and 0.04788 g/l Na2HPO4 (anhydrous); pH 7.4) was then added to each well. Following ˜0.5 hour for recovery from loading, cells were assayed using the Hamamatsu FDSS 6000 system, which permitted illumination alternately at 340 nm and 380 nm for Fura-2 experiments, or at 485 nm for Fluo4 experiments. Frames were acquired at a rate of 0.2 Hz. During the assay, the plates were continuously vortexed, with pipette mixing of wells following addition of each reagent. For the screening assay, 26 μl of a diluted compound stock (at 50 μM) was added to each well for 2 minutes following the collection of a short (4 frame) baseline. 13 μl 62 mM high-Ca2+ Ringer solution (4.17 ml of normal ringer (with 2 mM Ca2+) plus 5.83 ml of isotonic calcium ringer (105 mM Ca2+; in this ringer all sodium has been replaced with calcium)) was then added to each well, achieving a final concentration of 14 mM Ca2+ and 10 μM test compound. Data was collected for ˜3 minutes following addition of high Ca2+ Ringer, where the fluorescent intensity (for Fluo4) and the F340/F380 ratio (for Fura-2) were proportional to the [Ca2+]i Negative controls consisted of HEK293/TREx TRPC5 cells exposed to high Ca2+ solution, but no compound. Positive control conditions consisted of addition of 2-APB, a promiscuous blocker of TRPC5 and other channels, to columns 23 and 24 of the plates, to a final concentration of 200 μM. These controls defined a screening window, and “hits” were defined as those compounds inhibiting the fluorescence response by at least 40%. IC50 values were determined for compounds defined as “hits.” The Fluo4 cell-based fluorescence assay was used to determine the intracellular Ca2+ concentration in the presence of varying drug concentration. Final concentrations of compounds tested were 20 μM, 6.667 μM, 2.222 μM, 0.741 μM, 0.247 μM, 0.082 μM, and 0.027 μM. Compounds were tested in triplicate at all concentrations. Standard software was used to fit IC50 curves. A value of NF was assigned when no IC50 curves could not be fit.
# Additionally or alternatively, efficacy can be represented as % inhibition in the presence (of a given concentration of compound) versus the absence of compound or in comparison to a control compound. For example, efficacy can be represented as % inhibition of ion flux in the presence versus the absence of compound.
row,IC50,Compound
1,4.24 µM,"CC(C)c1ccccc1-c1cc2c(=O)n(CCCO)c(=O)n(C)c2cn1 [Compound 46, 3-(3-hydroxypropyl)-6-(2-isopropylphenyl)-1-methylpyrido[3,4-d]pyrimidine-2,4(1H,3H)-dione]"
2,1.61 µM,"Cn1c(=O)n(CCCO)c(=O)c2c(Cc3ccc(Cl)cc3)c(-c3ccc(Cl)cc3)ncc21 [Compound 47, 5-(4-chlorobenzyl)-6-(4-chlorophenyl)-3-(3-hydroxypropyl)-1-methylpyrido[3,4-d]pyrimidine-2,4(1H,3H)-dione]"
3,1.6 µM,"CC(C)CCc1c(-c2ccc(Cl)cc2)ncc2c1c(=O)n(CCCO)c(=O)n2C [Compound 48, 6-(4-chlorophenyl)-3-(3-hydroxypropyl)-5-isopentyl-1-methylpyrido[3,4-d]pyrimidine-2,4(1H,3H)-dione]"
4,2.36 µM,"CC(C)c1ccccc1-c1ncc2c(c1Cc1ccc(Cl)cc1)c(=O)n(CCCO)c(=O)n2C [Compound 49, 5-(4-chlorobenzyl)-3-(3-hydroxypropyl)-6-(2-isopropylphenyl)-1-methylpyrido[3,4-d]pyrimidine-2,4(1H,3H)-dione]"
5,9.8 µM,"CC(C)CCc1c(-c2ccccc2C(C)C)ncc2c1c(=O)n(CCCO)c(=O)n2C [Compound 50, 3-(3-hydroxypropyl)-5-isopentyl-6-(2-isopropylphenyl)-1-methylpyrido[3,4-d]pyrimidine-2,4(1H,3H)-dione]"
6,8.84 µM,"Cn1c(=O)n(CCCO)c(=O)c2c(Cc3ccc(Cl)cc3)c(Oc3cccc(Cl)c3)ncc21 [Compound 51, 5-(4-chlorobenzyl)-6-(3-chlorophenoxy)-3-(3-hydroxypropyl)-1-methylpyrido[3,4-d]pyrimidine-2,4(1H,3H)-dione]"
7,4.18 µM,"CC(C)CCc1c(-c2cccc(Cl)c2)ncc2c1c(=O)n(CCCO)c(=O)n2C [Compound 52, 6-(3-chlorophenyl)-3-(3-hydroxypropyl)-5-isopentyl-1-methylpyrido[3,4-d]pyrimidine-2,4(1H,3H)-dione]"
8,0.195 µM,"Cn1c(=O)n(CCCO)c(=O)c2c(Cc3ccccc3)c(-c3cccc(OC(F)(F)F)c3)ncc21 [Compound 53, 5-benzyl-3-(3-hydroxypropyl)-1-methyl-6-(3-(trifluoromethoxy)phenyl)pyrido[3,4-d]pyrimidine-2,4(1H,3H)-dione]"

# Molecular target: T1, TRPC5 channel
# Assay: Whole-cell patch clamp experiments on TRPC5 current
# Assay type: cell-based
# Settings: TRPC5-expressing HEK293 TREx cells, current activated by LaCl3, holding potential −40 mV, currents quantified at −80 mV and +80 mV
# Text: Patch clamp experiments permit the detection of currents through the TRPC5 channel in the cell line described above. In normal whole-cell patch clamp recordings, a glass electrode is brought into contact with a single cell and a high-resistance (gigaohm) seal is established with the cell membrane. The membrane is then ruptured to achieve the whole-cell configuration, permitting control of the voltage of the cell membrane and measurement of currents flowing across the membrane using the amplifier attached to the electrode and resulting in the replacement of cytoplasm with the pipette solution. A perfusion system permits control of the extracellular solution, including the addition of blockers and activators of the current. The current can be activated by including 1.4 μM free Ca^2+ in the pipette (intracellular) solution, and 80 μM LaCl3 in the extracellular solution.
# TRPC5 cells were induced 20-48 hours, removed from growth plates, and replated at low density (to attain good single-cell physical separation) on glass coverslips for measurement. In some cases, cells were grown in low density overnight on glass coverslips. […] Currents elicited were quantified at −80 mV and +80 mV. The internal solution consisted of 140 mM cesium aspartate, 10 mM HEDTA, 2 mM CaCl2, 2.27 mM MgCl2 and 10 mM HEPES, pH 7.2, with 1,400 nM calculated free Ca^2+. […]
row,IC50,Compound
1,0.0388 µM,"CC(C)c1ccccc1-c1ncc2c(c1Cc1ccc(Cl)cc1)c(=O)n(CCCO)c(=O)n2C [Compound 49, 5-(4-chlorobenzyl)-3-(3-hydroxypropyl)-6-(2-isopropylphenyl)-1-methylpyrido[3,4-d]pyrimidine-2,4(1H,3H)-dione]"

# — patent publication US9440973B2, “Pyrido[3,4-d]pyrimidine-2,4(1H,3H)-dione derivatives” (Hydra Biosciences, Inc., priority 2014, dated 2016)
